According to patent US20170216277A1, “[…] USE OF […] […] EFFECTS” (TREVI THERAPEUTICS, INC., priority 2016, published 2017):

Columns and labels:
[1] = Serum sodium, TR01, healthy subjects (Cohort 2); type: in vivo, human
[2] = Urine output over 24 hours, Phase I trial TR01, healthy subjects (Cohort 2); conditions: five 24-hour collections, progressively higher doses
Experimental: (§1) The presence and extent of a possible aquaretic effect was evaluated by measuring urine output (healthy subjects only) and serum sodium as well as blood pressure and heart rate, as markers of potential volume depletion. Urine specific gravity was also analyzed to assess for reduced urine osmolarity (resulting in a decrease in urine specific gravity) due to free water excretion.

[3] = Heart rate, TR01, hemodialysis patients; type: in vivo, human
Experimental: (§2) The presence and extent of a possible aquaretic effect was evaluated by measuring urine output (healthy subjects only) and serum sodium as well as blood pressure and heart rate, as markers of potential volume depletion.
(§3) In the dialysis patients, all vital sign measurements and blood samples were collected pre-dialysis. On days of study drug administration, vital signs were measured at 0 (prior to the morning dose), 1.5, 4.5, and 8 hours after the morning dose and 2 hours after the evening meal, coinciding with administration of the PM dose. Blood pressure was also measured at 6 and 10 hours post dinner. On Day −1 (pre-treatment) vital sign measurements were obtained in the morning and evening at approximately the same time that study drug was administered on subsequent treatment days.
(§4) Blood pressure and heart rate were measured at multiple time points on Days −1 through 14 or 17.

[4] = Blood pressure (diastolic and systolic), TR01, healthy subjects
Experimental: as §2, §3, §4

[5] = Blood pressure (diastolic and systolic), TR01, hemodialysis patients
Experimental: as §2, §3, §4

[6] = oral aqueous solution; fasted conditions, across studies
[7] = Overall evaluation of aquaretic effect, TR01; type: in vivo, human
Experimental: as §1

[8] = Adverse event reporting of increased urine output, TR01, hemodialysis patients; type: in vivo, human; conditions: dialysis patients in TR01; urine collection not performed
Excerpt: Based on historical data, the dialysis patients in TR01 had limited to no residual renal function.

[9] = Serum sodium (pre-dialysis), TR01, hemodialysis patients (Cohort 1); type: in vivo, human
[10] = Heart rate, TR01, healthy subjects; type: in vivo, human
Experimental: as §2, §3, §4

17-(cyclobutylmethyl)-4,5α-epoxymorphinian-3,6α,14-triol, hydrochloride [nalbuphine]
Hypernatremia during nalbuphine treatment [1]: No healthy subject | Trend of rising serum sodium during the treatment period [1]: nor was there a trend of rising serum sodium | Increased urine output related to dose or duration of time on nalbuphine [2]: no evidence of increased urine output | Dose or time-dependent mean heart rate increase [3]: no evidence of a dose or time-dependent mean heart rate increase | Systolic blood pressure range throughout the study [4]: 78-148 mmHg | Dose-related reductions in blood pressure ([4]; Days −1 through 14): no consistent dose-related reductions in blood pressure | Hypotension ([4]; throughout the study): no subjects or patients developed hypotension | Systolic blood pressure range throughout the study ([5]; dialysis patients): 70-199 mmHg | Dose-related reductions in blood pressure ([5]; hemodialysis patients, Days −1 through 14 or 17): no consistent dose-related reductions in blood pressure | Hypotension ([5]; hemodialysis patients, throughout the study): no subjects or patients developed hypotension | Median Tmax [6]: 30 to 60 min | Aquaretic effect ([7]; dialysis patients, doses up to 240 mg BID): no evidence of an aquaretic effect | Aquaretic effect ([7]; healthy subjects, doses up to 180 mg BID): no evidence of an aquaretic effect | Adverse event of increased urine output [8]: no adverse event of increased urine output was reported | Hypernatremia during nalbuphine treatment [9]: No healthy subject (Table 5) or hemodialysis patient | Trend of rising serum sodium during the treatment period [9]: nor was there a trend of rising serum sodium | Dose or time-dependent mean heart rate increase [10]: no evidence of a dose or time-dependent mean heart rate increase
